Measurements: US12115178B2, “Acylated active agents and methods of their use for the treatment of autoimmune disorders” (Flagship Pioneering Innovations V, Inc., priority 2018, dated 2024)

Key:
Format in all cases: in vitro ADME
[1] = Assay 3. In vitro Colonic Material Stability Assay
[2] = Assay 2. Stability in Simulated Intestinal Fluid (SIF); conditions: SIF pH 6.7 with pancreatin, 1 μM, 37° C.
Outline: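 Degradation rates came from LC/MS of acetonitrile-quenched samples drawn at intervals, starting at T0. The medium was freshly made pH 6.7 FaSSIF containing pancreatin, and test compound was present at 1 µM while being shaken at 37 °C.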

[3] = Assay 1. Stability in Simulated Gastric Fluid (SGF); conditions: SGF pH 1.6 with pepsin, 1 μM, 37° C.
Outline: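 Degradation rate from LC/MS of acetonitrile-quenched aliquots (T0, then regular intervals). Fresh SGF (pH 1.6 NaCl, FaSSIF powder, pepsin 0.1 mg/mL) held compound at 1 μM final, 37° C; 1 mM DMSO stock.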

[4] = colonic material slurry, anaerobic, 1 or 10 μM

Compound	Assay 3 (% Remaining at 24 h) ([1]; Run 1, colonic material)	Assay 3 (% Remaining at 24 h) ([1]; Run 2, colonic material)	Assay 2 (SIF) (% @ Remaining 4 hours) [2]	Assay 1 (SGF) (% Remaining @ 1 hour) [3]	Assay 3 (% Remaining at 24 h) [1, 4]
C[C@@H]1O[C@H](OC(=O)CCc2c[nH]c3ccccc23)[C@@H](OC(=O)CCc2c[nH]c3ccccc23)[C@H](OC(=O)CCc2c[nH]c3ccccc23)[C@@H]1OC(=O)CCc1c[nH]c2ccccc12 [Compound 70, (2R,3S,4R,5R,6S)-3,4,5-tris({[3-(1H-indol-3-yl)propanoyl]oxy})-6-methyloxan-2-yl 3-(1H-indol-3-yl)propanoate]	A (<25% of the tested compound remaining)	B (25-75% of the tested compound remaining)	A (<25% of the tested compound remaining)	B (25-75% of the tested compound remaining)	–
CCCC(=O)O[C@@H]1[C@@H](OC(=O)CCC)[C@@H](OC)OC[C@H]1OC(=O)CCC [Compound 71, (2S,3R,4S,5R)-4,5-bis(butanoyloxy)-2-methoxyoxan-3-yl butanoate]	–	–	A (<25% of the tested compound remaining)	B (25-75% of the tested compound remaining)	A (<25% of the tested compound remaining)
CCC(=O)O[C@@H]1[C@@H](OC(=O)CC)[C@@H](OC)OC[C@H]1OC(=O)CC [Compound 72, (2S,3R,4S,5R)-2-methoxy-4,5-bis(propanoyloxy)oxan-3-yl propanoate]	–	–	B (25-75% of the tested compound remaining)	C (>75% of the tested compound remaining)	A (<25% of the tested compound remaining)
CCC(=O)O[C@@H]1[C@@H](OC(=O)CC)[C@H](OC)OC[C@H]1OC(=O)CC [Compound 73, (2R,3R,4S,5R)-2-methoxy-4,5-bis(propanoyloxy)oxan-3-yl propanoate]	–	–	A (<25% of the tested compound remaining)	C (>75% of the tested compound remaining)	A (<25% of the tested compound remaining)
CCC(=O)O[C@@H]1[C@@H](OC(=O)CC)[C@H](OC(=O)CCc2c[nH]c3ccccc23)OC[C@@H]1OC(=O)CC [Compound 74, (2S,3R,4S,5S)-3,4,5-tris(propanoyloxy)oxan-2-yl 3-(1H-indol-3-yl)propanoate]	–	–	A (<25% of the tested compound remaining)	C (>75% of the tested compound remaining)	A (<25% of the tested compound remaining)
CCC(=O)O[C@@H]1[C@@H](OC(=O)CC)[C@H](OC(=O)Cc2c[nH]c3ccccc23)OC[C@H]1OC(=O)CC [Compound 76, (2S,3R,4S,5R)-2-{[2-(1H-indol-3-yl)acetyl]oxy}-4,5-bis(propanoyloxy)oxan-3-yl propanoate]	–	–	A (<25% of the tested compound remaining)	C (>75% of the tested compound remaining)	A (<25% of the tested compound remaining)
CCC(=O)O[C@H]1[C@H](OC(=O)CC)[C@@H](OC(=O)CCc2c[nH]c3ccccc23)O[C@@H](C)[C@H]1OC(=O)CC [Compound 77, (2R,3S,4R,5R,6S)-6-methyl-3,4,5-tris(propanoyloxy)oxan-2-yl 3-(1H-indol-3-yl)propanoate]	–	–	C (>75% of the tested compound remaining)	C (>75% of the tested compound remaining)	A (<25% of the tested compound remaining)
CCC(=O)O[C@@H]1O[C@@H](C)[C@H](OC(=O)CC)[C@@H](OC(=O)CC)[C@H]1OC(=O)CC [Compound 78, (2S,3R,4R,5S,6S)-6-methyl-3,4,5-tris(propanoyloxy)oxan-2-yl propanoate]	–	–	A (<25% of the tested compound remaining)	B (25-75% of the tested compound remaining)	A (<25% of the tested compound remaining)
O=C(CCc1c[nH]c2ccccc12)O[C@@H]1OC[C@@H](OC(=O)CCc2c[nH]c3ccccc23)[C@@H](OC(=O)CCc2c[nH]c3ccccc23)[C@H]1OC(=O)CCc1c[nH]c2ccccc12 [Compound 80, (2S,3R,4R,5R)-3,4,5-tris({[3-(1H-indol-3-yl)propanoyl]oxy})oxan-2-yl 3-(1H-indol-3-yl)propanoate]	–	–	A (<25% of the tested compound remaining)	C (>75% of the tested compound remaining)	A (<25% of the tested compound remaining)
CCCC(=O)O[C@@H]1[C@@H](OC(=O)CCC)[C@H](C)O[C@@H](OC(=O)CCc2c[nH]c3ccccc23)[C@@H]1OC(=O)CCC [Compound 83, (2S,3R,4R,5S,6S)-4,5-bis(butanoyloxy)-2-{[3-(1H-indol-3-yl)propanoyl]oxy}-6-methyloxan-3-yl butanoate]	–	–	A (<25% of the tested compound remaining)	C (>75% of the tested compound remaining)	A (<25% of the tested compound remaining)
CCCC(=O)O[C@H]1[C@H](OC(=O)CCC)[C@H](OC(=O)CCc2c[nH]c3ccccc23)O[C@@H](C)[C@H]1OC(=O)CCC [Compound 84, (2S,3S,4R,5R,6S)-4,5-bis(butanoyloxy)-2-{[3-(1H-indol-3-yl)propanoyl]oxy}-6-methyloxan-3-yl butanoate]	–	–	A (<25% of the tested compound remaining)	C (>75% of the tested compound remaining)	A (<25% of the tested compound remaining)
CCCC(=O)OC[C@H]1O[C@@H](OC(=O)CCc2c[nH]c3ccccc23)[C@H](OC(=O)CCC)[C@@H](OC(=O)CCC)[C@@H]1OC(=O)CCC [Compound 85, [(2R,3R,4S,5R,6S)-3,4,5-tris(butanoyloxy)-6-{[3-(1H-indol-3-yl)propanoyl]oxy}oxan-2-yl]methyl butanoate]	–	–	A (<25% of the tested compound remaining)	B (25-75% of the tested compound remaining)	A (<25% of the tested compound remaining)
CCCC(=O)OC[C@H]1O[C@H](OC(=O)CCc2c[nH]c3ccccc23)[C@H](OC(=O)CCC)[C@@H](OC(=O)CCC)[C@@H]1OC(=O)CCC [Compound 90, [(2R,3R,4S,5R,6R)-3,4,5-tris(butanoyloxy)-6-{[3-(1H-indol-3-yl)propanoyl]oxy}oxan-2-yl]methyl butanoate]	–	–	B (25-75% of the tested compound remaining)	C (>75% of the tested compound remaining)	A (<25% of the tested compound remaining)
CCC(=O)O[C@@H]1[C@@H](OC(=O)CC)[C@H](OC(=O)/C=C/c2c[nH]c3ccccc23)OC[C@H]1OC(=O)CC [Compound 91, (2S,3R,4S,5R)-3,4,5-tris(propanoyloxy)oxan-2-yl (2E)-3-(1H-indol-3-yl)prop-2-enoate]	–	–	A (<25% of the tested compound remaining)	C (>75% of the tested compound remaining)	A (<25% of the tested compound remaining)
